The text below walks through data of patent US6372770B1, “Benzoxazoles” (Euro-Celtique, S.A., priority 1994, dated 2002).

For one assay, the system named is T1, PDE IV.
T1 construct: PDE IV IC50; other: Type IV PDE isolated from bovine tracheal smooth muscle; rolipram run in the
The assay can be described thus: Type IV PDE inhibition, hydrolysis of [3H]-cyclic AMP. The assay is classed as biochemical, bovine. To be noted: Type IV PDE isolated from bovine tracheal smooth muscle; 0.2 μM cyclic AMP; read-out: PDE IV IC50. An excerpt:
The PDE IV inhibitory compounds of the present invention may be examined for their PDE IV inhibitory effects via the techniques set forth in the following examples, wherein the ability of the compounds to inhibit PDE IV isolated from bovine tracheal smooth muscle is set forth.
The Type IV PDE is isolated from bovine tracheal smooth muscle using a procedure similar to that previously described by Silver, P. J. et al., Eur. J. Pharmacol. 150:85,1988.(1). Briefly, smooth muscle from bovine trachea is minced and homogenized using a polytron in 10 volumes of an extraction buffer containing 10 mM Tris-acetate (pH 7.5), 2 mM magnesium chloride, 1 mM dithiothreitol and 2,000 units/ml of aprotinin. This and all subsequent procedures are performed at 0-4° C. The homogenate is sonicated and then centrifuged at 48,000×g for 30 minutes. The resulting supernatant is applied to a DEAE Trisacryl M column previously equilibrated with sodium acetate and dithiothreitol. After applications of the sample, the column is washed with sodium acetate/dithiothreitol, after whlich the different forms of PDE are eluted from the column using a linear Tris-HCl/NaCl gradient. Fractions containing Type IV PDE are collected, dialyzed and concentrated to 14% of the original volume. The concentrated fractions are diluted to 50% with ethylene glycol and stored at −20° C.
Enzyme activity is assessed by measuring the hydrolysis of [^3H]-cyclic AMP, as described by Thompson, W. J. et al., Adv. Cyclic Nucleotide Res. 10:69, 1979. The cyclic AMP concentration used in this assay is 0.2 μM, which approximates the Km value. Protein concentration is adjusted to ensure that no more than 15% of the available substrate is hydrolyzed during the incubation period.
(§1) All test compounds are dissolved in dimethyl sulfoxide (final concentration of 2.5%). This concentration of dimethyl sulfoxide inhibits enzyme activity by approximately 10%.

A further assay has as its target T2, PDE III (Homo sapiens, UniProt Q14432).
T2 construct: Fractions containing PDE III activity are pooled and dialyzed overnight; from tissue; host or cells: human platelets
Kind of assay: Type III PDE inhibition, hydrolysis of [3H]-cyclic AMP. It counts as biochemical. To be noted: for IC50: Type III PDE isolated from human platelets, 0.2 μM cyclic AMP. As for the experimental part:
The Type III PDE is isolated from human platelets using a procedure similar to that previously described by Washer, R. E. et al., Biochem. Pharmacol., 35:787, 1986. Briefly, 1-2 units of platelets are suspended in an equal volume of buffer (20 mM Tris-HCl, pH 7.5, containing 2 mM magnesium acetate, 1 mM dithiothreitol, and 5 mM Na2EDTA). The proteinase inhibitor phenylmethyl-sulfonyl fluoride (PMSF) is also included in this buffer at a final concentration of 200 μM. The suspension is homogenized using a polytron and the homogenate centrifuged at 100,000×g for 60 minutes. This and all subsequent procedures are performed at 0-4° C. The supernatant is then filtered through four layers of gauze and applied to a DEAE-Trisacryl M column, previously equilibrated with buffer B (20 mM Tris-HCl, pH 7.5, containing 1 mM magnesium acetate, 1 mM dithiothreitol and 200 μM PMSF). After application of the sample, the column is washed with several bed volumes of buffer B, after which the different forms of PDE are eluted from the column using two successive linear NaCl gradients (0.05-0.15 M, 300 ml total; 0.15-0.40 M, 200 ml total). Five ml fractions are collected and assayed for cyclic AMP and cyclic GMP PDE activity. Fractions containing PDE III activity are pooled and dialyzed overnight against 4 L of buffer B. The dialyzed PDE III is then concentrated to 10% of the original volume, diluted to 50% with ethylene glycol monoethyl ether and stored at −20° C. PDE III can typically be retained for up to four weeks with little or no loss of activity.
Enzyme activity is assessed by measuring the hydrolysis of [^3H]-cyclic AMP, as described by Thompson, W. J. et al., Adv. Cyclic Nucleotide Res. 10:69, 1979. The cyclic AMP concentration used in this assay is 0.2 μM, which approximates to the Km value. Protein concentration is adjusted to ensure that no more than 15% of the available substrate is hydrolyzed during the incubation period.
as §1

Where a name gives a salt, the structure may show the parent alone.

T2 sequence (Q14432 whole entry): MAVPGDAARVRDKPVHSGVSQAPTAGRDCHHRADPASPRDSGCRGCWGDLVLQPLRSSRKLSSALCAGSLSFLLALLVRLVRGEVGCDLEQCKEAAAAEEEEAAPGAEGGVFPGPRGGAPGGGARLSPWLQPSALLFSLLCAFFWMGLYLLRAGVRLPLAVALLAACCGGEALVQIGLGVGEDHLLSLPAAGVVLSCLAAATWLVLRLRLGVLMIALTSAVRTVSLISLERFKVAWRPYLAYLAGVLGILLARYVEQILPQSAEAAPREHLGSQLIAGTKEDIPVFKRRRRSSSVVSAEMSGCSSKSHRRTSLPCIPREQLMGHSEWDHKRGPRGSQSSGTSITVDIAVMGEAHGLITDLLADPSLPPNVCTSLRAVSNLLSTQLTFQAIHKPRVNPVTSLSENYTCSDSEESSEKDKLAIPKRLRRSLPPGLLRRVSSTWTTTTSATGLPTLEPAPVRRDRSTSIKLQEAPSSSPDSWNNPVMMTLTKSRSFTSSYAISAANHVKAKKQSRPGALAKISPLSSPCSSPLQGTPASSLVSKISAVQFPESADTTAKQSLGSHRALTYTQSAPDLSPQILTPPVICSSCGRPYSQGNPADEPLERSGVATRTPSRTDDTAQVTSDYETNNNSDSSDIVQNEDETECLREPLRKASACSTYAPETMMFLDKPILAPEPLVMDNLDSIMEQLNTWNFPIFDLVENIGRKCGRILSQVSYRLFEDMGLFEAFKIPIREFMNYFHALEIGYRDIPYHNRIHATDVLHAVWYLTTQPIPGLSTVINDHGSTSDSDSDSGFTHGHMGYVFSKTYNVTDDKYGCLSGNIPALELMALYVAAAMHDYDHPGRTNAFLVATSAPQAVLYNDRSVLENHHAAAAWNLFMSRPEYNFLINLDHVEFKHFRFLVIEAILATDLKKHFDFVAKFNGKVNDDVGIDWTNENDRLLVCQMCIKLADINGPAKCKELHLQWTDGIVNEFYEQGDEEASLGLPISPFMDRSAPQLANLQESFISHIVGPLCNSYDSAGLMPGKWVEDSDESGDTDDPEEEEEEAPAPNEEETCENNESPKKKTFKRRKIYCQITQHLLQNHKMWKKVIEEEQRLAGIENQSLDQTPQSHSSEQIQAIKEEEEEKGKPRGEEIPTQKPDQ

Consider “2-(3-Cyclopentyloxy-4-methoxybenzyl)-5-chloro-7-(2-hydroxyethyl)benzoxazole Carbamate [Example 28]”, for which the IC50 – broadly, the concentration that gives 50% inhibition – in the assay with PDE IV amounted to 700 nM; against PDE III, 36.8 µM.

Regarding “2-(3-cyclopentyloxy-4-methoxybenzyl)-5-chlorobenzoxazole-7-ethanal Oxime [Example 31]”, the figures for the IC50 in the assay with PDE IV and against PDE III were 1660 nM and > 300 µM, respectively. With `C=CCc1cc(Cl)cc2nc(Cc3ccc(OC)c(OC4CCCC4)c3)oc12` [Example 1, 7-Allyl-5-chloro-2-(3-cyclopentyloxy-4-methoxybenzyl)-benzoxazole], the IC50 against PDE III was > 300 µM. Also, on PDE III (at 10 μM), the inhibition (commonly the percentage by which the read-out fell short of the control) at 10 µM turned out to be 22%. `CC(C)(C)c1cc(Cc2nc3cc(Cl)cc(C#Cc4ccccn4)c3o2)cc(C(C)(C)C)c1O` [Example 2, 5-Chloro-2-(3,5-di-t-butyl-4-hydroxy-benzyl)-7(2-(2-pyridyl)-ethynyl)-benzoxazole]: the IC50 in the assay with PDE IV was found to be 10 nM. The same measure, in the same setting: as for `CC(C)(C)c1cc(Cc2nc3cc(Cl)cc(C#Cc4nccs4)c3o2)cc(C(C)(C)C)c1O` [Example 3, 5-Chloro-2-(3,5-di-t-butyl-4-hydroxy-benzyl)-7-(2-(2-thiazolyl)-ethynyl)-benzoxazole], the figure is 10 nM. Regarding `COc1ccc(Cc2nc3cc(Cl)cc(Br)c3o2)cc1OC1CCCC1` [Example 4, 7-Bromo-5-chloro-2-(3-cyclopentyloxy-4-methoxybenzyl)-benzoxazole], the half-maximal inhibitory concentration (IC50) in the assay on PDE IV was 25100 nM; at PDE III, 7.4 µM.

With `COc1ccc(Cc2nc3cccc([N+](=O)[O-])c3o2)cc1OC1CCCC1` [Example 6, 2-(3-Cyclopentyloxy-4-methoxybenzyl)-7-nitro-benzoxazole], the 50% inhibitory concentration (IC50) worked out at 1600 nM in the assay on PDE IV and 0.6 µM against PDE III. For the compound `COc1ccc(Cc2nc3c(O)cccc3o2)cc1OC1CCCC1` [Example 7, 2-(3-Cyclopentyloxy-4-methoxybenzyl)-4-hydroxy-benzoxazole], the IC50 came out at 500 nM in the assay on PDE IV and 124 µM at PDE III. As for `COc1ccc(Cc2nc3c(OC(C)=O)cccc3o2)cc1OC1CCCC1` [Example 8, 4-Acetoxy-2-(3-cyclopentyloxy-4-methoxybenzyl)-benzoxazole], the IC50 in the assay with PDE IV is 750 nM; on PDE III, 158 µM. For `COc1ccc(Cc2nc3c(OCc4ccccn4)cccc3o2)cc1OC1CCCC1` [Example 10, 2-((3-Cyclopentyloxy-4-methoxy)benzyl)-4-(2-pyridylmethoxy)-benzoxazole Hydrochloride], the IC50 in the assay on PDE IV was 530 nM; at PDE III, > 300 µM. In the case of `COc1ccc(Cc2nc3cccc(N)c3o2)cc1OC1CCCC1` [Example 13, 7-Amino-2-((3-Cyclopentyloxy-4-methoxy)benzyl)-benzoxazole Hydrochloride], the IC50 came out at 13700 nM in the assay on PDE IV and 253 µM against PDE III. Turning to `COc1ccc(Cc2nc3c(OC)cccc3o2)cc1OC1CCCC1` [Example 14, 2-((3-Cyclopentyloxy-4-methoxy)benzyl)-4-methoxy-benzoxazole], the IC50 with PDE IV was found to be 1990 nM; at PDE III, 49.2 µM.

In the case of `COc1ccc(Cc2nc3cccc(NC(=O)c4cccnc4)c3o2)cc1OC1CCCC1` [Example 15, 2-((3-Cyclopentyloxy-4-methoxy)benzyl)-7-(nicotinoyl-amino)-benzoxazole], the results for the IC50 with PDE IV and against PDE III were 4790 nM and 177 µM, respectively. For `COc1ccc(Cc2nc3cccc(NC(=O)c4ccncc4)c3o2)cc1OC1CCCC1` [Example 16, 2-((3-Cyclopentyloxy-4-methoxy)benzyl)-7-(isonicotinoyl-amino)-benzoxazole Hydrochloride], the IC50 with PDE IV came to 6030 nM; at PDE III, 43.9 µM. `COc1ccc(Cc2nc3cccc(NC(=O)c4ccccn4)c3o2)cc1OC1CCCC1` [Example 17, 2-((3-Cyclopentyloxy-4-methoxy)benzyl)-7-(2-pyridine-carbonylamino)-benzoxazole]: the half-maximal inhibitory concentration (IC50) with PDE IV came out at 760 nM; against PDE III, 121 µM. For the compound `COc1ccc(Cc2nc3cccc(NC(=O)OCc4ccccc4)c3o2)cc1OC1CCCC1` [Example 18, 7-((Benzyloxycarbonyl)amino)-2-((3-Cyclopentyloxy-4-methoxy)-benzyl)-benzoxazole], the figures for the IC50 with PDE IV and against PDE III were 3430 nM and > 300 µM, respectively.

As to `COc1ccc(Cc2nc3cccc(Br)c3o2)cc1OC1CCCC1` [Example 19, 2-((3-Cyclopentyloxy-4-methoxy)benzyl)-7-bromo-benzoxazole], the IC50 stood at 470 nM in the assay on PDE IV and 2.8 µM on PDE III.

Turning to `CC(C)c1cc(Cc2nc3c(O)cccc3o2)cc(C(C)C)c1O` [Example 20, 2-((3,5-Di-isopropyl-4-hydroxy)benzyl)-4-hydroxy-benzoxazole], the concentration for half-maximal inhibition (IC50) in the assay on PDE IV was determined as 3030 nM; against PDE III it was 34.3 µM. On to `Cc1cc(Cc2nc3c(O)cccc3o2)cc(C)c1O` [Example 21, 2-((3,5-Dimethyl-4-hydroxy)benzyl)-4-hydroxybenzoxazole], for which the IC50 worked out at 24500 nM in the assay on PDE IV and 105 µM against PDE III. Turning to `CC(C)(C)c1cc(Cc2nc3cccc(C#Cc4ccccn4)c3o2)cc(C(C)(C)C)c1O` [Example 22], in the assay on PDE IV, the IC50 is 70 nM. In the case of `CC(C)c1cc(Cc2nc3cccc(C#Cc4ccccn4)c3o2)cc(C(C)C)c1O` [Example 23], the figures for the IC50 in the assay on PDE IV and on PDE III were 260 nM and 152 µM, respectively.

On to `COc1ccc(Cc2nc3cc(Cl)cc(CCO)c3o2)cc1OC1CCCC1` [Example 27, 2-(3-Cyclopentyloxy-4-methoxybenzyl)-5-chloro-7-(2-hydroxyethyl)Benzoxazole], for which the results for the IC50 with PDE IV and at PDE III were 650 nM and 38.1 µM, respectively. Take `COc1ccc(Cc2nc3cc(Cl)cc(CC(=O)O)c3o2)cc1OC1CCCC1` [Example 29, 2-(3-Cyclopentyloxy-4-methoxybenzyl)-5-chlorobenzoxazole-7-acetic Acid]: the results for the IC50 with PDE IV and at PDE III were 11200 nM and 100 µM, respectively. Regarding `COc1ccc(Cc2nc3cc(Cl)cc(CC(N)=O)c3o2)cc1OC1CCCC1` [Example 30, 2-(3-Cyclopentyloxy-4-methoxybenzyl)-5-chlorobenzoxazole-7-acetamide], the IC50 in the assay on PDE IV was 2920 nM; against PDE III it was 128 µM. Turning to `Nc1cccc2nc(-c3cccc(Cl)c3)oc12` [Example 32], the results for the IC50 in the assay with PDE IV and against PDE III were 32500 nM and > 300 µM, respectively. The like results for `Clc1cccc(-c2nc3cccc(NCc4ccccn4)c3o2)c1` [Example 33, 2-(3-chlorophenyl)-7-(2-pyridylmethylamino)benzoxazole] were, in that order, 9100 nM and 173 µM.

For the compound `COc1ccc(Cc2nc3cccc(NCc4cccnc4)c3o2)cc1OC1CCCC1` [Example 34, 2-(3-Cyclopentyloxy-4-methoxybenzyl)-7-(3-pyridylmethylamino)Benzoxazole], the IC50 in the assay with PDE IV stood at 1000 nM; against PDE III, 33.2 µM. Regarding `COc1ccc(Cc2nc3cccc(NCc4ncc[nH]4)c3o2)cc1OC1CCCC1` [Example 35, 2-(3-Cyclopentyloxy-4-methoxybenzyl)-7-(2-imidazolylmethylamino)Benzoxazole], the IC50 in the assay with PDE IV is 19300 nM; on PDE III, > 300 µM. The like results for `COc1ccc(CNc2cccc3nc(-c4cccc(Cl)c4)oc23)cc1OC1CCCC1` [Example 36, 2-(3-Chlorophenyl)-7-(3-cyclopentyloxy-4-methoxy-benzylamino)Benzoxazole] were, in that order, 15800 nM and > 300 µM.
